PMC8253220, “Molecular design, synthesis and in vitro biological evaluation of thienopyrimidine–hydroxamic acids as chimeric kinase HDAC inhibitors: a challenging approach to combat cancer” (Journal of Enzyme Inhibition and Medicinal Chemistry, 2021)

Tests used:
EGFR = EGFR (Homo sapiens, UniProt P00533); experiment: In vitro EGFR tyrosine kinase inhibitory assay (Z'-LYTE, SelectScreen); type: biochemical; settings: for inhibition at 10 µM: 10 µM single dose
Description: The target compounds were evaluated for their in vitro inhibitory activities against EGFR, VEGFR-2, and HDAC6. The EGFR and VEGFR-2 inhibitory assays were performed at Thermo Fischer Scientific, Madison, WI, USA (SelectScreenServices@thermofisher.com). The HDAC inhibitory assays were performed at BPS Bioscience, San Diego, CA, USA (www.bpsbioscience.com). Initially, all of the synthesised target compounds were evaluated for their percent inhibitory activity against EGFR, VEGFR-2, and HDACs at 10 µM single dose concentration, in which their mean percent inhibition is summarised in (Figure 5, Tables 1 and [2]). Representative compounds were evaluated for their percent inhibitory activity against EGFR and VEGFR-2 at 6 different concentrations (0.1 nM, 1 nM, 10 nM, 100 nM, 1 µM, 10 µM) to subsequently calculate their IC50 values (Table 3). Additionally, all of the synthesised target compounds were submitted to the National Cancer Institute “NCI” Bethesda, Maryland, USA (www.dtp.nci.nih.gov), to evaluate theirs in vitro antiproliferative activities against NCI 60- cancer cell line panel.
In vitro enzyme inhibition determination for the synthesised compounds was carried out in Thermo Fischer Scientific, Madison, WI, USA (SelectScreenServices@thermofisher.com). The EGFR and VEGFR-2 tyrosine kinase % inhibitory activity at a single-dose concentration of 10 µM was performed initially then representative compounds were evaluated at single-dose concentrations of (0.1 nM, 1 nM, 10 nM, 100 nM, 1 µM) using ZYLTE technology. A fluorescence-based, coupled-enzyme format is employed in the biochemical assay and depends on the sensitivity of proteolytic cleavage to non-phosphorylated and phosphorylated peptides. Then IC50 values for selected compounds were determined by GraphPad Prism at Misr international university.

full NCI 60 cell panel = experiment: NCI one-dose screen, whole panel statistics; type: cell-based, human; settings: 1.00E-5 Molar; for Mean Growth Percent: mean over panel
Description: All of the synthesised structures were selected and submitted to NCI based on computer modelling techniques and the degree of diversity of structures for the evaluation of their antiproliferative activity. The 20 synthesised compounds were selected with their respective NCI codes [NCS D-820157- NCS D-820176] for the inhibition percent assay at an initial single dose of 10 μM on the full NCI 60 cell panel, where the mean graph of the percent growth for all compounds on the full NCI cell panel is evaluated, compared to the untreated control cells (Supplementary Material). In vitro cell line inhibition % of all synthesised compounds is represented in (Table 1 of Supplementary Material).
All of the synthesised compounds (20) were submitted to NCI and selected for in vitro anticancer assay against a panel of 60 cancer cell lines. The methodology of assay and calculations is as reported.

Sequence of EGFR (P00533 25-1210): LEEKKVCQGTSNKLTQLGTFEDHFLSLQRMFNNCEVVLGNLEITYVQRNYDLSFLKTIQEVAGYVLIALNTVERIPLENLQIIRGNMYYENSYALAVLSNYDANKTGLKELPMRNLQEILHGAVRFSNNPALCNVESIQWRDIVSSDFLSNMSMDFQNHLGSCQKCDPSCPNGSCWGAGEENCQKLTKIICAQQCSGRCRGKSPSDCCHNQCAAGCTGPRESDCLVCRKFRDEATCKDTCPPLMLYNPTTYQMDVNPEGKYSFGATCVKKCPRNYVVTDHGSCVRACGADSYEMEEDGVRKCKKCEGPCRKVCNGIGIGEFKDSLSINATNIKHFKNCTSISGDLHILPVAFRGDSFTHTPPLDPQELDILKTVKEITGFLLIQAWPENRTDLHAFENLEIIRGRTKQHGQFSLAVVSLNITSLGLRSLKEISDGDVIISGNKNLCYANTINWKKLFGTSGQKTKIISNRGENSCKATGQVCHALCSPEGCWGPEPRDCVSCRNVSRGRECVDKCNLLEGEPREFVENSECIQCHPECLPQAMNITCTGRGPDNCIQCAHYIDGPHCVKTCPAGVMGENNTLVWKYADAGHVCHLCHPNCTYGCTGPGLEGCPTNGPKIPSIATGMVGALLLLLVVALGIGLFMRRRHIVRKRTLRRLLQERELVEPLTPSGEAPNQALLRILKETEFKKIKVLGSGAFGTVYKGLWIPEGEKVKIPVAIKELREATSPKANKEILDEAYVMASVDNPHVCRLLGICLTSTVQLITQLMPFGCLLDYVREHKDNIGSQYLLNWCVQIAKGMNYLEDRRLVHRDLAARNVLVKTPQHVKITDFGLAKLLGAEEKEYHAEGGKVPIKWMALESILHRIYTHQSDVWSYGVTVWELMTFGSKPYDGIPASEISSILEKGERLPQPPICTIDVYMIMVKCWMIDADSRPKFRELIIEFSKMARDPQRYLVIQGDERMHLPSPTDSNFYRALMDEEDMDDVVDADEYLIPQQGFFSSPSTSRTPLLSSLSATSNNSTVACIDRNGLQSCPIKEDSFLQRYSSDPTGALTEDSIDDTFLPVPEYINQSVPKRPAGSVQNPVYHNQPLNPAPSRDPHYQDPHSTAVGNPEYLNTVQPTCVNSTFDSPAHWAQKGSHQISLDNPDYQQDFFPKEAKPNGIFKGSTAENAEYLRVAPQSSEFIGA

| Structure (SMILES) | inhibition at 10 µM (EGFR) | Delta (one dose mean graph) (full NCI 60 cell panel) | Range (one dose mean graph) (full NCI 60 cell panel) | Mean Growth Percent (full NCI 60 cell panel) | melting point | inhibition at 0.0001 µM (EGFR; 0.1 nM compound, 10 μM ATP, read-out: % Inhibition mean, EGFR (ErbB1)) | inhibition at 0.001 µM (EGFR; 1 nM compound, 10 μM ATP, read-out: % Inhibition mean, EGFR (ErbB1)) | inhibition at 0.01 µM (EGFR; 10 nM compound, 10 μM ATP, read-out: % Inhibition mean, EGFR (ErbB1)) | inhibition at 0.1 µM (EGFR; 100 nM compound, 10 μM ATP, read-out: % Inhibition mean, EGFR (ErbB1)) | inhibition at 1 µM (EGFR; 1000 nM compound, 10 μM ATP, read-out: % Inhibition mean, EGFR (ErbB1)) | IC50 (EGFR; read-out: IC50 in enzyme assays EGFR) |
| --- | --- | --- | --- | --- | --- | --- | --- | --- | --- | --- | --- |
| Cc1c(C(=O)NCCC(=O)NO)sc2ncnc(Nc3ccc(Cl)cc3)c12 [Compound 19c, 4–(4-chlorophenylamino)-N-(3-(hydroxyamino)-3-oxopropyl)-5-methylthieno[2,3-d]pyrimidine-6-carboxamide] | 78% | 24.83% | 44.72% | 104.82% | 282 °C | – | – | – | – | – | – |
| Cc1c(C(=O)NCCCC(=O)NO)sc2ncnc(Nc3ccccc3)c12 [Compound 20b, N-(4-(hydroxyamino)-4-oxobutyl)-5-methyl-4-(phenylamino)thieno[2,3-d]pyrimidine-6-carboxamide] | 92% | 14.62% | 40.59% | 102.91% | 205 °C | 2% | 1% | 7% | 35% | 85% | 0.155 µM |
| Cc1c(C(=O)NO)sc2ncnc(Nc3ccc(NC(=S)Nc4ccccc4)cc3)c12 [Compound 7d, 1–(4-(6-(hydroxycarbamoyl)-5-methylthieno[2,3-d]pyrimidin-4-ylamino)phenyl)-3-phenylthiourea] | 78% | 17.28% | 35.68% | 102.34% | 300 °C | – | – | – | – | – | – |
| Cc1c(C(=O)NO)sc2ncnc(Nc3ccc(NC(=O)Nc4ccccc4)cc3)c12 [Compound 7a, 1–(4-(6-(hydroxycarbamoyl)-5-methylthieno[2,3-d]pyrimidin-4-ylamino)phenyl)-3-phenylurea] | 48% | 24.69% | 48.09% | 99.34% | > 200 °C | – | – | – | – | – | – |
